Where “and” joins values, the source holds several entries; their conditions need not be identical. Equal values may be shown once. Read-outs that look alike come from different tables or passages of the source.
Tested on: 60 cancer cell lines (NCI 60 cancer cell line series)
Assay: NCI-DTP in vitro cancer screen, sulforhodamine B (SRB) growth inhibition, 48 hour exposure
Assay type: cell-based, human
Method: Cancer Cell Line Preparation. Sixty cancer cell lines were obtained from the National Cancer Institute Developmental Therapeutics Program (NCI-DTP). Procedures for growing cells and testing compounds have been described previously (Scudiero et al., Cancer Res. 1988, 48:4827-4833; Stinson et al., Anticancer Res.; Myers et al., Electrophoresis 1997, 18:647-653). Cells are plated on day 0 at a density individualized for each cell line so that they will generally be sub-confluent at the end of the assay period. On day 1, a compound is added in the format for a duplicate-well, 5-dose, ten-fold interval dose response study.
No-drug, no-cell and no-growth controls are included. On day 3 the cells are processed for staining with sulforhodamine B (SRB), which reflects the amount of cell mass present at the end of a 48 hour exposure to the test agent. From dose response curves based on the SRB data, various parameters can be determined. […] More precisely, the quantity used in the calculation to be described is the potency measure −log{GI50}.
Activity database (A). […] This subset of compounds was selected from the larger 23,000 compound database available from the DTP. The compounds were selected on the basis of their known mechanism of action and chemical structure. The average potency −log{GI50} was extracted from the comma-delimited text files available through the Web at http://www.nci.nih.gov/intra/lmp/jnwbio.html. Subsequently, these −log{GI50} values were inspected manually and classified as indicating either Low, Medium or High sensitivity to each compound.

O=NN(CCCl)C(=O)NCCCl [BCNU]
sensitivity classification Low(1)/Medium(2)/High(3): 2 and 1 and 3

CS(=O)(=O)OCCCCOS(C)(=O)=O [Busulfan]
classification of cell line as Low(1), Medium(2), High(3) sensitivity to compound (Breast BT-549 CL5013): 1
classification of cell line as Low(1), Medium(2), High(3) sensitivity to compound (Breast HS-578T CL5006): 1
classification of cell line as Low(1), Medium(2), High(3) sensitivity to compound (Breast MCF7(I) CL5001): 2
classification of cell line as Low(1), Medium(2), High(3) sensitivity to compound (Breast MCF7/ADRr CL5002): 2
classification of cell line as Low(1), Medium(2), High(3) sensitivity to compound (Breast MDA-MB-231 CL5005): 1
classification of cell line as Low(1), Medium(2), High(3) sensitivity to compound (Breast MDA-MB-435 CL5011): 1
classification of cell line as Low(1), Medium(2), High(3) sensitivity to compound (Breast MDA-N CL5012): 2
classification of cell line as Low(1), Medium(2), High(3) sensitivity to compound (Breast T-47D CL5014): 1
classification of cell line as Low(1), Medium(2), High(3) sensitivity to compound (CNS SF-268 CL12014): 2
classification of cell line as Low(1), Medium(2), High(3) sensitivity to compound (CNS SF-295 CL12015): 2
classification of cell line as Low(1), Medium(2), High(3) sensitivity to compound (CNS SF-539 CL12016): 1
classification of cell line as Low(1), Medium(2), High(3) sensitivity to compound (CNS SNB-19 CL12002): 2
classification of cell line as Low(1), Medium(2), High(3) sensitivity to compound (CNS SNB-75(I) CL12005): 3
classification of cell line as Low(1), Medium(2), High(3) sensitivity to compound (CNS U251(I) CL12009): 1
classification of cell line as Low(1), Medium(2), High(3) sensitivity to compound (Colon COLO-250 CL4010): 2
classification of cell line as Low(1), Medium(2), High(3) sensitivity to compound (Colon HCC-2998 CL4002): 2
classification of cell line as Low(1), Medium(2), High(3) sensitivity to compound (Colon HCT-15 CL4015): 2
classification of cell line as Low(1), Medium(2), High(3) sensitivity to compound (Colon HCT-116 CL4003): 1
classification of cell line as Low(1), Medium(2), High(3) sensitivity to compound (Colon HT29(I) CL4001): 1
classification of cell line as Low(1), Medium(2), High(3) sensitivity to compound (Colon KM12 CL4017): 1
classification of cell line as Low(1), Medium(2), High(3) sensitivity to compound (Colon SW-620 CL4009): 2
classification of cell line as Low(1), Medium(2), High(3) sensitivity to compound (Leukemia CCRF-CEM(I) CL7003): 3
classification of cell line as Low(1), Medium(2), High(3) sensitivity to compound (Leukemia HL-60(I) CL7008): 3
classification of cell line as Low(1), Medium(2), High(3) sensitivity to compound (Leukemia K562(I) CL7005): 2
classification of cell line as Low(1), Medium(2), High(3) sensitivity to compound (Leukemia MOLT-4 CL7006): 3
classification of cell line as Low(1), Medium(2), High(3) sensitivity to compound (Leukemia RPMI-8226(I) CL7010): 1
classification of cell line as Low(1), Medium(2), High(3) sensitivity to compound (Leukemia SR CL7019): 3
classification of cell line as Low(1), Medium(2), High(3) sensitivity to compound (Melanoma LOX IMVI CL10001): 2
classification of cell line as Low(1), Medium(2), High(3) sensitivity to compound (Melanoma M14 CL10014): 1
classification of cell line as Low(1), Medium(2), High(3) sensitivity to compound (Melanoma MALME-3M CL10002): 1
classification of cell line as Low(1), Medium(2), High(3) sensitivity to compound (Melanoma SK-MEL-2 CL10005): 1
classification of cell line as Low(1), Medium(2), High(3) sensitivity to compound (Melanoma SK-MEL-5 CL10007): 2
classification of cell line as Low(1), Medium(2), High(3) sensitivity to compound (Melanoma SK-MEL-28 CL10008): 2
classification of cell line as Low(1), Medium(2), High(3) sensitivity to compound (Melanoma UACC-62 CL10020): 2
classification of cell line as Low(1), Medium(2), High(3) sensitivity to compound (Melanoma UACC-257 CL10021): 2
classification of cell line as Low(1), Medium(2), High(3) sensitivity to compound (NSCLC A549/ATCC CL1004): 2
classification of cell line as Low(1), Medium(2), High(3) sensitivity to compound (NSCLC EKVX CL1008): 2
classification of cell line as Low(1), Medium(2), High(3) sensitivity to compound (NSCLC HOP-62 CL1026): 2
classification of cell line as Low(1), Medium(2), High(3) sensitivity to compound (NSCLC HOP-92 CL1029): 2
sensitivity classification Low(1)/Medium(2)/High(3) (NSCLC NCI-H23(I) CL1001): 2
classification of cell line as Low(1), Medium(2), High(3) sensitivity to compound (NSCLC NCI-H226 CL1013): 2
sensitivity classification Low(1)/Medium(2)/High(3) (NSCLC NCI-H332M CL1017): 1
sensitivity classification Low(1)/Medium(2)/High(3) (NSCLC NCI-H460 CL1021): 3
sensitivity classification Low(1)/Medium(2)/High(3) (NSCLC NCI-H522 CL1003): 1
sensitivity classification Low(1)/Medium(2)/High(3) (Ovarian IGROV1 CL6010): 1
sensitivity classification Low(1)/Medium(2)/High(3) (Ovarian OVCAR-3 CL6001): 2
sensitivity classification Low(1)/Medium(2)/High(3) (Ovarian OVCAR-4 CL6002): 2
sensitivity classification Low(1)/Medium(2)/High(3) (Ovarian OVCAR-5 CL6003): 1
sensitivity classification Low(1)/Medium(2)/High(3) (Ovarian OVCAR-8 CL6005): 1
sensitivity classification Low(1)/Medium(2)/High(3) (Ovarian SK-OV-3 CL6011): 1
sensitivity classification Low(1)/Medium(2)/High(3) (Prostate DU-145 CL11003): 2
sensitivity classification Low(1)/Medium(2)/High(3) (Prostate PC-3(I) CL11001): 1
sensitivity classification Low(1)/Medium(2)/High(3) (Renal 786-0 CL9018): 2
sensitivity classification Low(1)/Medium(2)/High(3) (Renal A498 CL9013): 1
sensitivity classification Low(1)/Medium(2)/High(3) (Renal ACHN CL9023): 2
sensitivity classification Low(1)/Medium(2)/High(3) (Renal CAKI-1 CL9015): 3
sensitivity classification Low(1)/Medium(2)/High(3) (Renal RXF-393 CL9016): 3
sensitivity classification Low(1)/Medium(2)/High(3) (Renal SN12C CL9008): 2
sensitivity classification Low(1)/Medium(2)/High(3) (Renal TK10 CL9024): 1
sensitivity classification Low(1)/Medium(2)/High(3) (Renal UO-31 CL9004): 1

Source: US20030129629A1, “Methods and compositions for the identification, assessment, prevention, and therapy of human cancers” (Millennium Pharmaceuticals, Inc., priority 2000, published 2003)
